The structures appear in SMILES notation.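 Five compound concentrations were applied to cells in 96-well plates for 48 hours; endpoints were derived by simple linear interpolation of the resulting dose-response curve. GI50 = concentration required for 50% inhibition of growth.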 Activity calls are given as the source filed them. Rule as the data show it: active = GI50 up to about 1.1 µM and inactive = higher. Peptide text beside a SMILES is read from it. * marks the point of attachment. Boc = CC(C)(C)OC(=O)*

Some test systems named below: RPMI-8226; A498; K562; OVCAR-8; A549; BT-549; SK-MEL-5; Malme-3M; HCT-15; SR; DU-145; IGROV-1; MDA-MB-435; HCT-116; HL-60; 786-0; SW-620; ACHN; MCF7; HOP-62.
Common to all, as to experiment: growth of human tumour cells (NCI), 48 h

As for `COc1cc(OCc2nc3cc(C(F)(F)F)ccc3nc2-c2ccccc2)cc(OC)c1OC`, the GI50 with RPMI-8226 was 15.5 µM (inactive); with A498 it was > 100 µM (inactive); in the assay with K562, 61.9 µM (inactive); in the assay with OVCAR-8, 64.3 µM (inactive); in the assay on A549 it was 36.9 µM (inactive); in the assay on BT-549, > 100 µM (inactive). Besides, the GI50 in the assay with SK-MEL-5 is 17.1 µM (inactive); in the assay on Malme-3M, > 100 µM (inactive); in the assay with HCT-15 it was over 100 µM; with SR, 81.5 µM (inactive); in the assay on DU-145, 86.9 µM (inactive); in the assay on IGROV-1, > 100 µM (inactive). Moreover, the GI50 with MDA-MB-435 is > 100 µM (inactive); with HCT-116, 94 µM (inactive); in the assay on HL-60 it was > 100 µM (inactive); in the assay with 786-0 it was 96.2 µM (inactive); with SW-620, > 100 µM (inactive); in the assay on ACHN, > 100 µM (inactive). Moreover, in the assay on MCF7, the GI50 is 56.4 µM (inactive).
Consider `Cc1ccc(SC2C(=O)C3CC(OCc4ccccc4)C2(C)C3(C)C)cc1` (stereo not given), for which the GI50 was > 100 µM (inactive) in the assay on A498; 32.9 µM (inactive) with K562; > 100 µM (inactive) in the assay on OVCAR-8; > 100 µM (inactive) with A549; > 100 µM (inactive) in the assay with BT-549; > 100 µM (inactive) in the assay on SK-MEL-5. Also, the GI50 is > 100 µM (inactive) in the assay on Malme-3M; 29.1 µM in the assay with HCT-15; 51.3 µM (inactive) in the assay on SR; > 100 µM (inactive) in the assay on DU-145; > 100 µM (inactive) with HOP-62; > 100 µM (inactive) in the assay on IGROV-1. The GI50 is > 100 µM (inactive) with MDA-MB-435; 9.66 µM (inactive) in the assay with HCT-116; 37.9 µM (inactive) with HL-60; > 100 µM (inactive) with 786-0; > 100 µM (inactive) with SW-620; > 100 µM (inactive) with ACHN. Besides, the GI50 in the assay with MCF7 is > 100 µM (inactive).
Consider `O=C1c2c(Cl)c(Cl)c(Cl)c(Cl)c2C(=O)N1CCN(c1c(Cl)ssc1=O)c1c(Cl)ssc1=O`, for which the GI50 in the assay on A498 is > 100 µM (inactive); in the assay with K562 it was 20.7 µM (inactive); in the assay on OVCAR-8, 21.7 µM (inactive); with A549 it was > 100 µM (inactive); in the assay with BT-549 it was 30.9 µM (inactive); in the assay on SK-MEL-5, > 100 µM (inactive). Besides, the GI50 was 25.2 µM (inactive) in the assay with Malme-3M; 19.5 µM with HCT-15; 20 µM (inactive) in the assay with SR; 19 µM (inactive) with DU-145; > 100 µM (inactive) in the assay on HOP-62; 46.2 µM (inactive) with IGROV-1. Further, the GI50 is 19.8 µM (inactive) with MDA-MB-435; 16.1 µM (inactive) in the assay on HCT-116; 30.2 µM (inactive) in the assay on HL-60; 18.2 µM (inactive) with 786-0; 22.5 µM (inactive) in the assay with SW-620; 18.2 µM (inactive) in the assay on ACHN. Further, the GI50 in the assay with MCF7 was 19.6 µM (inactive).
For `OC12CC3c4ccccc4NC3C3Oc4cccc5c4C31CCN(CC1CC1)C2C5` (stereo not given), the GI50 is 18.4 µM (inactive) in the assay on RPMI-8226; 17.9 µM (inactive) in the assay with A498; 15.5 µM (inactive) in the assay with K562; 16.4 µM (inactive) in the assay with OVCAR-8; 18.4 µM (inactive) in the assay with A549; 16.3 µM (inactive) with BT-549. For the same molecule, the GI50 in the assay on SK-MEL-5 was 16.8 µM (inactive); in the assay on Malme-3M, 19.7 µM (inactive); with HCT-15, 17.9 µM; with SR it was 17.4 µM (inactive); with DU-145, 17.1 µM (inactive); in the assay with HOP-62, 18.5 µM (inactive). The GI50 with IGROV-1 was 15.5 µM (inactive); in the assay on MDA-MB-435, 17.9 µM (inactive); in the assay with HCT-116 it was 16.8 µM (inactive); with 786-0 it was 16.7 µM (inactive); in the assay on SW-620, 11.8 µM (inactive); in the assay with ACHN it was 18.9 µM (inactive). Besides, the GI50 with MCF7 is 17.8 µM (inactive).
For `Cc1nnc(N)nc1/C=C/c1c(O)ccc2ccccc12`, the GI50 is 30.5 µM (inactive) in the assay on RPMI-8226; 21.3 µM (inactive) in the assay with A498; 38.5 µM (inactive) in the assay with K562; 35.2 µM (inactive) in the assay on OVCAR-8; 34 µM (inactive) in the assay with A549; 37.9 µM (inactive) with BT-549. Also, the GI50 in the assay with SK-MEL-5 is 25.7 µM (inactive); in the assay on HCT-15, 17.3 µM; with SR it was 44.4 µM (inactive); with DU-145, 52.8 µM (inactive); with HOP-62, 33.9 µM (inactive); with IGROV-1, 13.7 µM (inactive). The GI50 in the assay on MDA-MB-435 was 24.7 µM (inactive); with HCT-116, 30.8 µM (inactive); with HL-60 it was 28.2 µM (inactive); with 786-0, 32.4 µM (inactive); in the assay on SW-620, 31.6 µM (inactive); in the assay on ACHN it was 13.1 µM (inactive). The GI50 in the assay on MCF7 was 32.8 µM (inactive).
As to `NC1=NN(c2ccccc2)C2(O)c3ccncc3C3=NN(c4ccccc4)C(=O)C132` (stereo not given), the GI50 with RPMI-8226, in the assay with A498, with K562, in the assay with OVCAR-8, with A549 and in the assay with BT-549 was > 100 µM (inactive) throughout. The GI50 in the assay with SK-MEL-5 is > 100 µM (inactive); in the assay with Malme-3M, 63.1 µM (inactive); in the assay on HCT-15 it was over 100 µM; in the assay on SR, > 100 µM (inactive); in the assay on DU-145 it was > 100 µM (inactive); with IGROV-1, > 100 µM (inactive). The GI50 in the assay with MDA-MB-435, in the assay on HCT-116, with HL-60, in the assay on 786-0, with SW-620 and with ACHN was > 100 µM (inactive) each time. For the same molecule, the GI50 in the assay with MCF7 was > 100 µM (inactive).
Regarding `COc1cccc(-c2cc(O)c3cc(C)cnc3n2)c1`, the GI50 in the assay on RPMI-8226 is 0.0421 µM (active); with A498, 0.0904 µM (active); in the assay on K562 it was 0.0381 µM (active); in the assay on OVCAR-8 it was 0.0658 µM (active); with A549, 0.0776 µM (active); in the assay on BT-549, > 100 µM (inactive). In addition, the GI50 with SK-MEL-5 is 0.0787 µM (active); in the assay on HCT-15, 0.251 µM; in the assay with SR it was 0.0297 µM (active); with DU-145, 0.308 µM (active); in the assay on HOP-62, 0.0682 µM (active); in the assay on IGROV-1 it was 0.469 µM (active). The GI50 in the assay with MDA-MB-435 is 0.0122 µM (active); in the assay on HCT-116, 0.0323 µM (active); in the assay with HL-60, 0.0246 µM (active); with 786-0 it was 0.0488 µM (active); in the assay on SW-620, 0.06 µM (active); in the assay on ACHN, 0.0625 µM (active). In addition, in the assay on MCF7, the GI50 was 0.543 µM (active).
`O=C1/C(=C\c2cccc(Oc3ccccc3)c2)S(=O)(=O)C(c2ccccc2)N1Cc1ccccc1` (stereo not given): the GI50 in the assay on A498 is 19.3 µM (inactive); in the assay on K562 it was 26 µM (inactive); in the assay with OVCAR-8 it was 17.8 µM (inactive); with A549 it was 49.2 µM (inactive); in the assay with BT-549 it was 29 µM (inactive); with SK-MEL-5, 18.5 µM (inactive). Further, the GI50 in the assay with Malme-3M is 18.4 µM (inactive); with HCT-15, 15.6 µM; in the assay on SR, 14.9 µM (inactive); in the assay on DU-145 it was 33 µM (inactive); in the assay with HOP-62 it was 26.5 µM (inactive); with MDA-MB-435 it was 32.3 µM (inactive). Moreover, the GI50 was 31 µM (inactive) in the assay on HCT-116; 11.7 µM (inactive) in the assay with HL-60; 19.6 µM (inactive) in the assay with 786-0; 40.4 µM (inactive) in the assay with SW-620; 23 µM (inactive) with ACHN; 39.1 µM (inactive) with MCF7.
Regarding `OC(c1cccnc1)C(F)(F)c1nc2ccccc2o1` (stereo not given), the GI50 in the assay with RPMI-8226 was > 100 µM (inactive); in the assay with A498, 49.9 µM (inactive); with K562, 56.5 µM (inactive); in the assay on OVCAR-8 it was > 100 µM (inactive); in the assay with BT-549, > 100 µM (inactive); with SK-MEL-5 it was > 100 µM (inactive). In addition, the GI50 was over 100 µM in the assay on HCT-15; > 100 µM (inactive) in the assay with SR; 50.8 µM (inactive) in the assay with DU-145; > 100 µM (inactive) in the assay with HOP-62; > 100 µM (inactive) in the assay on IGROV-1; > 100 µM (inactive) with MDA-MB-435. Further, the GI50 in the assay with HCT-116, with HL-60, in the assay on 786-0, in the assay on SW-620, in the assay on ACHN and in the assay on MCF7 was > 100 µM (inactive) throughout.
For the molecule `CSCCC(NC(=O)C(CC(C)C)NC(=O)CNC(=O)OC(C)(C)C)C(=O)N(C)C` (stereo not drawn) (Boc-Gly-Leu-Met-NMe2; configuration not given here), the GI50 in the assay on A498, in the assay with K562, in the assay on OVCAR-8, in the assay on A549, with BT-549 and with SK-MEL-5 was > 100 µM (inactive) throughout. Also, the GI50 in the assay with Malme-3M was 87.7 µM (inactive); in the assay with HCT-15, over 100 µM; in the assay on SR, > 100 µM (inactive); in the assay on DU-145 it was > 100 µM (inactive); with IGROV-1, > 100 µM (inactive); in the assay on MDA-MB-435, > 100 µM (inactive). The GI50 in the assay on HCT-116, with HL-60, with 786-0, in the assay with SW-620, with ACHN and with MCF7 was > 100 µM (inactive) each time.
`CN(C)c1c(C2CC(O)C(CO)O2)c(=O)c1=O` (stereo not given): the GI50 with RPMI-8226, in the assay on A498, with K562, with OVCAR-8, in the assay on A549 and with BT-549 was > 100 µM (inactive) in each case. Also, the GI50 was over 100 µM with HCT-15; > 100 µM (inactive) in the assay with SR; > 100 µM (inactive) with DU-145; > 100 µM (inactive) with HOP-62; > 100 µM (inactive) with IGROV-1; > 100 µM (inactive) with MDA-MB-435. Moreover, the GI50 with HCT-116, with HL-60, with 786-0, in the assay on SW-620, with ACHN and with MCF7 was > 100 µM (inactive) throughout.

Source of the values: ChEMBL document CHEMBL1201862, “PubChem BioAssay data set” (2004).
